From patent US20050101783A1, “N-(heterocycle-methyl)alkylamine derivative, process for producing the same, and bactericide” (priority 2000, published 2005)

What was measured:
Candida albicans = experiment: Antibacterial test to Candida albicans (96-hole plate, IC80); assay type: cell-based; conditions: cultivated at 35° C. for 72 hours, absorbance at 540 nm
Procedure: (Antibacterial Test to Candida albicans) In the test examples, a test was performed on the antibacterial of the compounds according to the present invention to Candida albicans in the methods later described. The culture dilution train containing each compound was prepared by using a 96-hole flat-bottomed plate, and the inoculation mold solution controlled at 1 to 5×10^3 cell/ml beforehand of 10 μl was added to each hole on the plate. After the inoculation, the molds were cultivated at 35° C. for 72 hours, and the propagation of the mold was evaluated by measuring the absorbance at 540 nm. With such a test, the propagation of the mold in this case was compared with the propagation of the mold in the chemical-free test area to find the concentration of a compound where the propagation rate of the mold is suppressed by 80% as IC 80 (80% growth inhibition concentration).

Aspergillus fumigatus = experiment: Antibacterial test to Aspergillus fumigatus (96-hole plate, IC80); assay type: cell-based; conditions: YNB culture with 0.22% low melting point-agarose, 1×10^4 cell/ml, 25° C., 72 hours, absorbance at 620 nm
Procedure: (Antibacterial Test to Aspergillus fumigatus)
In the test example, a test was performed on the antibacterial of the compounds according to the present invention to Aspergillus fumigatus in the method later described.
Aspergillus fumigatus was cultivated in Sabouraud's agar at 37° C. for 3 days, after the spores to be used for the test were formed, the spore suspension was prepared. The spore suspension was suspended in YNB culture to which a 0.22% low melting point-agarose was added so as to allow the final concentration to be 1×10^4 cell/ml, and the solution was poured into each hole on a 96-hole flat-bottomed plate. Next, the dilution trains using each of the compounds according to the present invention were added, the solution was cultivated at 25° C. for 72 hours, and the propagation rate of the mold was evaluated by measuring the absorbance at 620 nm. With such a test, the propagation rate of the mold in the chemical-free test area was compared with this case to find the concentration of the compound where the propagation rate of the mold is suppressed by 80% as IC 80 (80% growth inhibition concentration).

Compound	80% Growth Inhibition Concentration (IC80) (Candida albicans)	80% Growth Inhibition Concentration (IC80) (Aspergillus fumigatus)
CC(C)(CNCc1cnccn1)Cc1ccc(C(C)(C)C)cc1 [Compound I-4, N-[3-(4-t-butylphenyl)-2,2-dimethylpropyl]-2-pyrazylmethylamine]	75 µg/mL	75 µg/mL
Cn1cc(CNCC(C)(C)Cc2ccc(C(C)(C)C)cc2)cn1 [Compound I-6]	18 µg/mL	9 µg/mL
CC(C)(CNCc1ccncn1)Cc1ccc(C(C)(C)C)cc1 [Compound I-10]	75 µg/mL	38 µg/mL
CC(C)(CNCc1c[nH]cn1)Cc1ccc(C(C)(C)C)cc1 [Compound I-11]	150 µg/mL	–
CC(C)(CNCc1c[nH]cn1)Cc1ccc(F)cc1F [Compound I-12]	18 µg/mL	–
